The text below walks through data of patent US12662490B2, “Heterocyclic compounds” (Hoffmann-La Roche Inc., priority 2019, dated 2026).

The structures appear in SMILES notation.

The experiment deals with T1, MAGL (Homo sapiens, UniProt Q99685).
T1 sequence (Q99685 1-303): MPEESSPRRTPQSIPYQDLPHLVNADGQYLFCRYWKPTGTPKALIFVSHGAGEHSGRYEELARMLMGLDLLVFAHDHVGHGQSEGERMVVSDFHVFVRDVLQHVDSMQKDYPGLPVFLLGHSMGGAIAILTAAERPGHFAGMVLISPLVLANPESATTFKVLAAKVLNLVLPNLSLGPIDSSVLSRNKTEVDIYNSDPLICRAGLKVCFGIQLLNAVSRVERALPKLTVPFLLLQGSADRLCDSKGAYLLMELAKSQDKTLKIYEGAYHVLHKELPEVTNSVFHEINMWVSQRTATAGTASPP
The experiment can be described thus: 2-AG assay (MAGL inhibitory activity; hydrolysis of 2-arachidonoylglycerol to arachidonic acid followed by mass spectrometry). Type of experiment: biochemical. The note with it: 15 min preincubation at RT, 8 μM 2-arachidonoylglycerol, 30 min at RT, RapidFire MS readout. Put shortly: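 Compounds (final 12.5 μM to […], 3-fold steps) preincubated 15 min at RT with MAGL ([…]) in 50 mM TRIS, 1 mM EDTA, Tween buffer. Reaction started with 8 μM 2-arachidonoylglycerol, run 30 min at RT, quenched with ACN containing d8-arachidonic acid. Arachidonic acid quantified by RapidFire SPE-triple quadrupole MS (negative ESI), activity from arachidonic acid/d8 ratio.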
The IC50 is the concentration that gives 50% inhibition. Molecule `O=C(c1cccc(-c2cn[nH]c2C(F)(F)F)c1F)N1CCN2C[C@@H](c3ccc(F)c(Cl)c3)OC[C@@H]2C1` [Example 102, [(3R,9aS)-3-(3-chloro-4-fluoro-phenyl)-3,4,6,7,9,9a-hexahydro-1H-pyrazino[2,1-c][1,4]oxazin-8-yl]-[2-fluoro-3-[5-(trifluoromethyl)-1H-pyrazol-4-yl]phenyl]methanone] registered an IC50 of 20.7 nM.
Then `O=C(c1cccc(-c2cn[nH]c2C(F)(F)F)c1)N1CCN2C[C@@H](c3ccc(F)c(Cl)c3)OC[C@@H]2C1` [Example 103, [(3R,9aS)-3-(3-chloro-4-fluoro-phenyl)-3,4,6,7,9,9a-hexahydro-1H-pyrazino[2,1-c][1,4]oxazin-8-yl]-[3-[5-(trifluoromethyl)-1H-pyrazol-4-yl]phenyl]methanone], with 28.2 nM; and `COc1cccc(C(=O)N2CCN3C[C@@H](c4cc(C(F)F)c(Cl)cn4)OC[C@@H]3C2)c1Cl` [Example 104, (2-chloro-3-methoxy-phenyl)-[(3S,9aS)-3-[5-chloro-4-(difluoromethyl)-2-pyridyl]-3,4,6,7,9,9a-hexahydro-1H-pyrazino[2,1-c][1,4]oxazin-8-yl]methanone], with 89.5 nM; and `O=C(c1cccc(-c2cc[nH]c(=O)c2)c1Cl)N1CCN2C[C@@H](c3ccc(F)c(Cl)c3)OC[C@@H]2C1` [Example 105, 4-[3-[(3R,9aS)-3-(3-chloro-4-fluoro-phenyl)-3,4,6,7,9,9a-hexahydro-1H-pyrazino[2,1-c][1,4]oxazine-8-carbonyl]-2-chloro-phenyl]-1H-pyridin-2-one], with 8.9 nM.
In the case of `O=C(c1cccc(-c2ccc(=O)[nH]c2)c1Cl)N1CCN2C[C@@H](c3ccc(F)c(Cl)c3)OC[C@@H]2C1` [Example 106, 5-[3-[(3R,9aS)-3-(3-chloro-4-fluoro-phenyl)-3,4,6,7,9,9a-hexahydro-1H-pyrazino[2,1-c][1,4]oxazine-8-carbonyl]-2-chloro-phenyl]-1H-pyridin-2-one], half-maximal inhibition (IC50) was put at 14.3 nM.
Molecule `COc1cccc(C(=O)N2CCN3C[C@@H](c4cc(Br)c(Cl)cn4)OC[C@@H]3C2)c1Cl` [Example 107, (2-chloro-3-methoxy-phenyl)-[(3S,9aS)-3-[5-chloro-4-bromo-2-pyridyl]-3,4,6,7,9,9a-hexahydro-1H-pyrazino[2,1-c][1,4]oxazin-8-yl]methanone] came in with a concentration for half-maximal inhibition (IC50) of 12.6 nM.
With `O=C(c1cccc(N2CC(O)C2)c1Cl)N1CCN2C[C@@H](c3ccc(F)c(Cl)c3)OC[C@@H]2C1` [Example 108, [(3R,9aS)-3-(3-chloro-4-fluoro-phenyl)-3,4,6,7,9,9a-hexahydro-1H-pyrazino[2,1-c][1,4]oxazin-8-yl]-[2-chloro-3-(3-hydroxyazetidin-1-yl)phenyl]methanone] the figure was 10.5 nM; with `N#Cc1cc(-c2cccc(C(=O)N3CCN4C[C@@](O)(c5ccc(F)c(Cl)c5)OC[C@@H]4C3)c2Cl)c[nH]1` [Example 109, 4-[3-[(3R,9aS)-3-(3-chloro-4-fluoro-phenyl)-3-hydroxy-1,4,6,7,9,9a-hexahydropyrazino[2,1-c][1,4]oxazine-8-carbonyl]-2-chloro-phenyl]-1H-pyrrole-2-carbonitrile], 1.6 nM; with `COc1cccc(C(=O)N2CCN3C[C@@H](c4ccc(Br)c(Cl)c4)OC[C@@H]3C2)c1Cl` [Example 110, [(3R,9aS)-3-(4-bromo-3-chloro-phenyl)-3,4,6,7,9,9a-hexahydro-1H-pyrazino[2,1-c][1,4]oxazin-8-yl]-(2-chloro-3-methoxy-phenyl)methanone], 5 nM.
With `COc1ccc(F)c(C(=O)N2CCN3C[C@@H](c4ccc(F)c(Cl)c4)OC[C@@H]3C2)c1Cl` [Example 111, [(3R,9aS)-3-(3-chloro-4-fluoro-phenyl)-3,4,6,7,9,9a-hexahydro-1H-pyrazino[2,1-c][1,4]oxazin-8-yl]-(2-chloro-6-fluoro-3-methoxy-phenyl)methanone] the figure was 5.8 nM; with `N#Cc1cc(-c2cc(F)cc(C(=O)N3CCN4C[C@@H](c5ccc(C(F)(F)F)[nH]c5=O)OC[C@@H]4C3)c2Cl)c[nH]1` [Example 112, 4-[3-[(3R,9aS)-3-[2-oxo-6-(trifluoromethyl)-1H-pyridin-3-yl]-3,4,6,7,9,9a-hexahydro-1H-pyrazino[2,1-c][1,4]oxazine-8-carbonyl]-2-chloro-5-fluoro-phenyl]-1H-pyrrole-2-carbonitrile], 6.5 nM; with `N#Cc1cc(-c2cccc(C(=O)N3CCN4C[C@@](O)(c5ccc(F)c(F)c5)OC[C@@H]4C3)c2Cl)c[nH]1` [Example 113, 4-[3-[(3R,9aS)-3-(3,4-difluorophenyl)-3-hydroxy-1,4,6,7,9,9a-hexahydropyrazino[2,1-c][1,4]oxazine-8-carbonyl]-2-chloro-phenyl]-1H-pyrrole-2-carbonitrile], 7.6 nM.
As to `O=C(c1cc(F)cc(-c2cc[nH]c(=O)c2)c1Cl)N1CCN2C[C@@H](c3ccc(F)c(Cl)c3)OC[C@@H]2C1` [Example 114, 4-[3-[(3R,9aS)-3-(3-chloro-4-fluoro-phenyl)-3,4,6,7,9,9a-hexahydro-1H-pyrazino[2,1-c][1,4]oxazine-8-carbonyl]-2-chloro-5-fluoro-phenyl]-1H-pyridin-2-one], inhibition was half-maximal at 10.8 nM (IC50).
With `N#Cc1cc(-c2cc(F)cc(C(=O)N3CCN4C[C@@H](c5cc(Cl)c[nH]c5=O)OC[C@@H]4C3)c2Cl)c[nH]1` [Example 115, 4-[3-[(3R,9aS)-3-(5-chloro-2-oxo-1H-pyridin-3-yl)-3,4,6,7,9,9a-hexahydro-1H-pyrazino[2,1-c][1,4]oxazine-8-carbonyl]-2-chloro-5-fluoro-phenyl]-1H-pyrrole-2-carbonitrile] the figure was 13.5 nM.
With `COc1ccc(F)c(C(=O)N2CCN3C[C@@](O)(c4ccc(F)c(Cl)c4)OC[C@@H]3C2)c1Cl` [Example 116, [(3R,9aS)-3-(3-chloro-4-fluoro-phenyl)-3-hydroxy-1,4,6,7,9,9a-hexahydropyrazino[2,1-c][1,4]oxazin-8-yl]-(2-chloro-6-fluoro-3-methoxy-phenyl)methanone] the figure was 15.9 nM.
As to `N#Cc1cc(-c2cccc(C(=O)N3CCN4C[C@@H](c5cc(Cl)c[nH]c5=O)OC[C@@H]4C3)c2Cl)c[nH]1` [Example 117, 4-[3-[(3R,9aS)-3-(5-chloro-2-oxo-1H-pyridin-3-yl)-3,4,6,7,9,9a-hexahydro-1H-pyrazino[2,1-c][1,4]oxazine-8-carbonyl]-2-chloro-phenyl]-1H-pyrrole-2-carbonitrile], the concentration for half-maximal inhibition (IC50) is 17.4 nM.
Take `O=C(c1cccc(-c2c[nH]c(=O)o2)c1Cl)N1CCN2C[C@@H](c3ccc(Cl)c(Cl)c3)OC[C@@H]2C1` [Example 118, 5-[3-[(3R,9aS)-3-(3,4-dichlorophenyl)-3,4,6,7,9,9a-hexahydro-1H-pyrazino[2,1-c][1,4]oxazine-8-carbonyl]-2-chloro-phenyl]-3H-oxazol-2-one]: the half-maximal inhibitory concentration (IC50) is 33.1 nM.
Molecule `COc1cccc(C(=O)N2CCN3C[C@@](O)(c4ccc(C(F)(F)F)cc4)OC[C@@H]3C2)c1Cl` [Example 119, [(3R,9aS)-3-hydroxy-3-[4-(trifluoromethyl)phenyl]-1,4,6,7,9,9a-hexahydropyrazino[2,1-c][1,4]oxazin-8-yl]-(2-chloro-3-methoxy-phenyl)methanone] gave an IC50 of 34.7 nM.
The molecule `COc1cccc(C(=O)N2CCN3C[C@@](O)(c4ccc(Cl)c(F)c4)OC[C@@H]3C2)c1Cl` [Example 120, [(3R,9aS)-3-(4-chloro-3-fluoro-phenyl)-3-hydroxy-1,4,6,7,9,9a-hexahydropyrazino[2,1-c][1,4]oxazin-8-yl]-(2-chloro-3-methoxy-phenyl)methanone] gave an IC50 of 42.4 nM.
The molecule `O=C(c1cccc(-c2c[nH]c(=O)o2)c1Cl)N1CCN2C[C@@H](c3ccc(F)c(Cl)c3)OC[C@@H]2C1` [Example 121, 5-[3-[(3R,9aS)-3-(3-chloro-4-fluoro-phenyl)-3,4,6,7,9,9a-hexahydro-1H-pyrazino[2,1-c][1,4]oxazine-8-carbonyl]-2-chloro-phenyl]-3H-oxazol-2-one] yielded a concentration for half-maximal inhibition (IC50) of 46.4 nM.
For the molecule `O=C(c1cccc(-c2c[nH]c(=O)o2)c1Cl)N1CCN2C[C@@](O)(c3ccc(Cl)c(Cl)c3)OC[C@@H]2C1` [Example 122, 5-[3-[(3R,9aS)-3-(3,4-dichlorophenyl)-3-hydroxy-1,4,6,7,9,9a-hexahydropyrazino[2,1-c][1,4]oxazine-8-carbonyl]-2-chloro-phenyl]-3H-oxazol-2-one], the IC50 amounted to 48.6 nM.
For the molecule `Cc1cc(-c2cccc(C(=O)N3CCN4C[C@@H](c5ccc(F)c(Cl)c5)OC[C@@H]4C3)c2Cl)cc(=O)[nH]1` [Example 123, 4-[3-[(3R,9aS)-3-(3-chloro-4-fluoro-phenyl)-3,4,6,7,9,9a-hexahydro-1H-pyrazino[2,1-c][1,4]oxazine-8-carbonyl]-2-chloro-phenyl]-6-methyl-1H-pyridin-2-one], the midpoint of inhibition, the IC50, lay at 55.7 nM.
Then `Cc1[nH]c(=O)ccc1-c1cccc(C(=O)N2CCN3C[C@@H](c4ccc(F)c(Cl)c4)OC[C@@H]3C2)c1Cl` [Example 124, 5-[3-[(3R,9aS)-3-(3-chloro-4-fluoro-phenyl)-3,4,6,7,9,9a-hexahydro-1H-pyrazino[2,1-c][1,4]oxazine-8-carbonyl]-2-chloro-phenyl]-6-methyl-1H-pyridin-2-one], with 57.6 nM; and `COc1cccc(C(=O)N2CCN3C[C@@](O)(c4cc(Cl)cc(Br)c4)OC[C@@H]3C2)c1Cl` [Example 125, [(3R,9aS)-3-(3-bromo-5-chloro-phenyl)-3-hydroxy-1,4,6,7,9,9a-hexahydropyrazino[2,1-c][1,4]oxazin-8-yl]-(2-chloro-3-methoxy-phenyl)methanone], with 82.8 nM.
